Results taken from patent US7977346B2, “Spiro compounds and methods of use” (priority 2006, dated 2011).

Key:
[1] = test system: human tumor NSCLC A549 cell line; test: MTT assay against human tumor NSCLC A549 cell line; format: cell-based
Source text: (§1) The following in vitro results are activities of some compounds in present invention against human tumor NSCLC A549 cell line and colon LOVO cell line in MTT assay.

colon LOVO cell line = test: MTT assay against colon LOVO cell line; format: cell-based, human
Source text: as §1

Row | Compound | IC50 [1] [nM] | IC50 (colon LOVO cell line) [nM]
1 | COc1cc2c(Nc3ccc(Br)cc3F)ncnc2cc1OCCCN1CC2(CC2)C2(C1)OCCO2 [Example 35, N-(2-fluoro-4-bromophenyl)-6-methoxy-7-[3-(5,8-Dioxa-10-azadispiro[2.0.4.3]undecane)propoxy]quinazolin-4-amine] | 0.0402 | 0.0318
2 | COc1cc2ncnc(Nc3ccc(F)c(Cl)c3)c2cc1OCCN1CC2(CC2)C2(C1)OCCS2 (centres unmarked) [Example 37, N-(3-chloro-4-fluorophenyl)-7-methoxy-6-[2-(5,8-Oxathiolane-10-azadispiro[2.0.4.3]undecane)ethoxy]quinazolin-4-amine] | 0.132 | 0.0553
3 | COc1cc2ncnc(Nc3ccc(F)c(Cl)c3)c2cc1OCCN1CC(OC)C2(CC2)C1 (centres unmarked) [Example 27, N-(3-chloro-4-fluorophenyl)-7-methoxy-6-[2-(7-methoxy-5-azaspiro[2.4]heptane)ethoxy]quinazolin-4-amine] | 0.212 | 0.0978
4 | COc1cc2c(Nc3ccc(Br)cc3F)ncnc2cc1OCCN1CC2(CC2)C2(C1)OCCO2 [Example 36, N-(2-fluoro-4-bromophenyl)-6-methoxy-7-[2-(5,8-Dioxa-10-azadispiro[2.0.4.3]undecane)ethoxy]quinazolin-4-amine] | 0.022 | 0.057
5 | COc1cc2ncnc(Nc3ccc(F)c(Cl)c3)c2cc1OCCCN1CC(OC)C2(CC2)C1 (centres unmarked) [Example 26, N-(3-chloro-4-fluorophenyl)-7-methoxy-6-[3-(7-methoxy-5-azaspiro[2.4]heptane)propoxy]quinazolin-4-amine] | 0.091 | 0.0376
6 | COc1cc2ncnc(Nc3cccc(Br)c3)c2cc1OCCN1CC2(CC2)C2(C1)OCCO2 [Example 32, N-(3-bromophenyl)-7-methoxy-6-[2-(5,8-Dioxa-10-azadispiro[2.0.4.3]undecane)ethoxy]quinazolin-4-amine] | 0.028 | 0.032
7 | C#Cc1cccc(Nc2ncnc3cc(OC)c(OCCN4CC5(CC5)C5(C4)OCCO5)cc23)c1 [Example 28, N-(3-ethynylphenyl)-7-methoxy-6-[2-(5,8-Dioxa-10-azadispiro[2.0.4.3]undecane)ethoxy]quinazolin-4-amine] | 0.096 | 0.0376
8 | N-(3-chloro-4-fluorophenyl)-7-methoxy-6-[3-(5,9-Dioxa-11-azadispiro[2.0.4.3]dodecane)propoxy]quinazolin-4-amine [Example 40] | 0.042 | 0.029
9 | COc1cc2ncnc(Nc3cccc(C(F)(F)F)c3)c2cc1OCCN1CC2(CC2)C2(C1)OCCO2 [Example 31, N-(3-trifluoromethylphenyl)-7-methoxy-6-[2-(5,8-Dioxa-10-azadispiro[2.0.4.3]undecane)ethoxy]quinazolin-4-amine] | 0.0546 | 0.098
10 | COc1cc2ncnc(Nc3ccc(F)c(Cl)c3)c2cc1OCCN1CC(=O)C2(CC2)C1 [Example 23, N-(3-chloro-4-fluorophenyl)-7-methoxy-6-[2-(5-azaspiro[2.4]heptan-7-one)ethoxy]quinazolin-4-amine] | 0.0893 | 0.219

The remaining lines, values ahead:

Row | IC50 [1] [nM] | IC50 (colon LOVO cell line) [nM] | Compound
11 | 0.0749 | 0.0272 | C#Cc1cccc(Nc2ncnc3cc(OC)c(OCCN4CC(O)C5(CC5)C4)cc23)c1 (centres unmarked) [Example 30, N-(3-ethynylphenyl)-7-methoxy-6-[2-(5-azaspiro[2.4]heptan-7-ol)ethoxy]quinazolin-4-amine]
12 | 0.0421 | 0.139 | COc1cc2ncnc(Nc3ccc(F)c(Cl)c3)c2cc1OCCN1CC2(CC2)C2(C1)OCCO2 [Example 21, N-(3-chloro-4-fluorophenyl)-7-methoxy-6-[2-(5,8-Dioxa-10-azadispiro[2.0.4.3]undecane)ethoxy]quinazolin-4-amine]
13 | 0.034 | 0.171 | COc1cc2ncnc(Nc3ccc(F)c(Cl)c3)c2cc1OCCCN1CC2(CC2)C2(C1)OCCS2 (centres unmarked) [Example 34, N-(3-chloro-4-fluorophenyl)-7-methoxy-6-[3-(5,8-Oxathiolane-10-azadispiro[2.0.4.3]undecane)propoxy]quinazolin-4-amine]
14 | 0.023 | 0.03 | COc1cc2ncnc(Nc3ccc(F)c(Cl)c3)c2cc1OCCN1CC2(CC2)C2(C1)OCC(C)(C)CO2 [Example 39, N-(3-chloro-4-fluorophenyl)-7-methoxy-6-[2-(5,9-Dioxa-7,7-dimethyl-11-azadispiro[2.0.4.3]dodecane)ethoxy]quinazolin-4-amine]
15 | 0.0573 | 0.0954 | COc1cc2ncnc(Nc3ccc(F)c(Cl)c3)c2cc1OCCN1CC(O)C2(CC2)C1 (centres unmarked) [Example 25, N-(3-chloro-4-fluorophenyl)-7-methoxy-6-[2-(5-azaspiro[2.4]heptan-7-ol)ethoxy]quinazolin-4-amine]
16 | 0.075 | 0.129 | COc1cc2ncnc(Nc3ccc(F)c(Cl)c3)c2cc1OCCCN1CC2(CC2)C2(C1)OCC(C)(C)CO2 [Example 41, N-(3-chloro-4-fluorophenyl)-7-methoxy-6-[3-(5,9-Dioxa-7,7-dimethyl-11-azadispiro[2.0.4.3]dodecane)propoxy]quinazolin-4-amine]
17 | 0.0619 | 0.0375 | COc1cc2ncnc(Nc3ccc(F)c(Cl)c3)c2cc1OCCCN1CC2(CC2)C2(C1)OCCO2 [Example 20, N-(3-chloro-4-fluorophenyl)-7-methoxy-6-[3-(5,8-Dioxa-10-azadispiro[2.0.4.3]undecane)propoxy]quinazolin-4-amine]
18 | 0.0519 | 0.118 | COc1cc2ncnc(Nc3ccc(Cl)c(Cl)c3)c2cc1OCCN1CC2(CC2)C2(C1)OCCO2 [Example 33, N-(3,4-dichlorophenyl)-7-methoxy-6-[2-(5,8-Dioxa-10-azadispiro[2.0.4.3]undecane)ethoxy]quinazolin-4-amine]
19 | 0.0359 | 0.0329 | COc1cc2ncnc(Nc3ccc(F)c(Cl)c3)c2cc1OCCCN1CC(=O)C2(CC2)C1 [Example 22, N-(3-chloro-4-fluorophenyl)-7-methoxy-6-[3-(5-azaspiro[2.4]heptan-7-one)propoxy]quinazolin-4-amine]
20 | 0.0375 | 0.165 | COc1cc2ncnc(Nc3ccc(F)c(Cl)c3)c2cc1OCCCN1CC(O)C2(CC2)C1 (centres unmarked) [Example 24, N-(3-chloro-4-fluorophenyl)-7-methoxy-6-[3-(5-azaspiro[2.4]heptan-7-ol)propoxy]quinazolin-4-amine]
21 | 0.104 | 0.0934 | C#Cc1cccc(Nc2ncnc3cc(OC)c(OCCN4CC(=O)C5(CC5)C4)cc23)c1 [Example 29, N-(3-ethynylphenyl)-7-methoxy-6-[2-(5-azaspiro[2.4]heptan-7-one)ethoxy]quinazolin-4-amine]
22 | 0.073 | 0.143 | COc1cc2ncnc(Nc3ccc(F)c(Cl)c3)c2cc1OCCN1CC2(CC2)C2(C1)OCCCO2 [Example 38, N-(3-chloro-4-fluorophenyl)-7-methoxy-6-[2-(5,9-Dioxa-11-azadispiro[2.0.4.3]dodecane)ethoxy]quinazolin-4-amine]
